Test results from patent US7129267B2, “Methods for SHP1 mediated neuroprotection” (Janssen Pharmaceutica N.V., priority 2002, dated 2006).

These molecules were tested against SHP1 (Homo sapiens, UniProt P29350) (assay: SHP1 tyrosine phosphatase activity inhibition assay). Conditions: under the assay conditions.
Format: biochemical
Text: The invention further provides a method of identifying an inhibitor of a SHP1 tyrosine phosphatase activity, comprising the steps of: • 1) contacting a test compound with a SHP1 protein or an active fragment thereof; and • 2) determining the ability of the test compound to decrease the tyrosine phosphatase activity of SHP1.
A variety of assay methods can be used to determine the effect of the compound on the tyrosine phosphatase activity of SHP1. Some of the assay methods are disclosed in WO99/54450. For example, SHP1 phosphotase activity can be measured as a function of the ability of SHP1 to dephosphorylate a substrate, such as a phosphorylated JAK2. In particular, a phosphorylated peptide derived from JAK2. The dephosphorylation reaction can be monitored using a malachite green assay (Lanzetta et al., Anal Biochem. 1979, 100:95–7), which measures the release of inorganic phosphate from the substrate. Alternatively, SHP1 phosphotase activity can be measured in vivo by changes in cellular physiology affected by the SHP1 phosphotase activity, such as the inactivation of the EPOR signal transduction pathway.
Compounds of Formula I, II, and III were identified as inhibitors for SHP1 tyrosine phosphatase activity using methods of the invention.

Chain of SHP1 (P29350 whole entry): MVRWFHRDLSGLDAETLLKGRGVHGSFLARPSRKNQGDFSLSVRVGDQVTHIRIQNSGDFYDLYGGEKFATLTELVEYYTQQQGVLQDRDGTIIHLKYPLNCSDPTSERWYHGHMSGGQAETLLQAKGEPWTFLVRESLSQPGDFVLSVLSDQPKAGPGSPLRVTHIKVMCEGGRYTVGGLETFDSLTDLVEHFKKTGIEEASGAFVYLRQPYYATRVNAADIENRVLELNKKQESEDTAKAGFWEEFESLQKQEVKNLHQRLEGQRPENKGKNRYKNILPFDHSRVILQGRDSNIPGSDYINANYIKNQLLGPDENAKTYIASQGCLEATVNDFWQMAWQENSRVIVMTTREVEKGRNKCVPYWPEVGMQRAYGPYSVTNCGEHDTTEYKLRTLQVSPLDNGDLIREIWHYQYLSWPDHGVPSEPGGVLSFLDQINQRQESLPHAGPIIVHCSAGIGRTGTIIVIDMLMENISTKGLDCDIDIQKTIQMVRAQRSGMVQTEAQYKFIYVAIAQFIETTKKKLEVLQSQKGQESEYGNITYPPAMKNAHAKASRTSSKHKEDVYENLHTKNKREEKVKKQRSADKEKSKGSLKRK

Going from `CC(=O)Nc1ccc(/C=C2/SC(=S)NC2=O)cc1` to `O=C1CSC(=S)N1CNc1ccc(NCN2C(=O)CSC2=S)cc1`, the IC50 falls from 25.7 µM to 4.3 µM (6-fold). The second is the more potent here.

`O=C(O)/C=C/c1ccc(/C=C/C(=O)O)s1` gave an IC50 of 22 µM.
